Values quoted from earlier work in patent US20100012891A1, “Tooth Whitening Compositions and Methods” (priority 2008, published 2010).

Details: at six months, 16%-18% carbamide peroxide (Brunton et al., 2004)

NC(N)=O.OO [carbamide peroxide]
patients with rebound: 40%
